Source: publication PMC10303271, “Synthesis and Receptor Binding Studies of α5 GABAAR Selective Novel Imidazodiazepines Targeted for Psychiatric and Cognitive Disorders” (Molecules, 2023)
Read-outs that look alike come from different tables or passages of the source.

Experiments:
Alpha2Beta2 = biological target: T1, Alpha2Beta2 (Rattus norvegicus, UniProt P12389+P12390); test: PDSP primary binding Alpha2Beta2; details: primary binding, 10,000 nM; last figure of the line = mean of the 4 before it; read-out: Alpha2Beta2, PDSP raw data, mean
T1 construct: purchased NIMH Psychoactive Drug Screening Program (PDSP)
T1 sequence (P12389 28-511): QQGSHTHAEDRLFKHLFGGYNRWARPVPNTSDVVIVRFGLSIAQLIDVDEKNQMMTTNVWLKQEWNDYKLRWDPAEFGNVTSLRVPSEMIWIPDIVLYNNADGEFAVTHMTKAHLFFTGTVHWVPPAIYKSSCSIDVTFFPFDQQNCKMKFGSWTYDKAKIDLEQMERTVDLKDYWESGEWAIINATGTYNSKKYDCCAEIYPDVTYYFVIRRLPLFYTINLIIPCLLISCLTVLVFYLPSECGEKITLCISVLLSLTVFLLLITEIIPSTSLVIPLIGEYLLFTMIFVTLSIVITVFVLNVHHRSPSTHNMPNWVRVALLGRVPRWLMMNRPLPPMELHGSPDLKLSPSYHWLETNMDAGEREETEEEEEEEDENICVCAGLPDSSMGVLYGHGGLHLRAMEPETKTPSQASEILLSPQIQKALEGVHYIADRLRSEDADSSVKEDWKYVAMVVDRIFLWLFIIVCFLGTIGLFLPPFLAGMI
T1 sequence (P12390 25-500): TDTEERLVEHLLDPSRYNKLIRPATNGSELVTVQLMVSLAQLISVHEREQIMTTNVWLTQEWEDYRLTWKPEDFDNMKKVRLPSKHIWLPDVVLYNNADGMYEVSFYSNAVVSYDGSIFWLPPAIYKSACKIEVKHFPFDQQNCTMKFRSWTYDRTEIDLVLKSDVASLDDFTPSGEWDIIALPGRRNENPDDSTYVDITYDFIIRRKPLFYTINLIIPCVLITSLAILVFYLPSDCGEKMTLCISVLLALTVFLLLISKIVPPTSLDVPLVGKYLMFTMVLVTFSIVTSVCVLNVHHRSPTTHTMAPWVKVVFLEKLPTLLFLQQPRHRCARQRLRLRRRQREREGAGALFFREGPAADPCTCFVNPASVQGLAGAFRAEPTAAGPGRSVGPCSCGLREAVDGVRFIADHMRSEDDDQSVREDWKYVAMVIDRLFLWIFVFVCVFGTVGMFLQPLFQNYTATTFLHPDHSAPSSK
Protocol: (§1) To determine if any off-target receptor-binding effects are present, all the novel ligands were sent to the National Institute of Mental Health (NIMH), Psychoactive Drug Screening Program (PDSP). The ligands were screened over a panel of 47 receptors, ion channels, and transporters to determine any other possible interactions with […]. The hERG-binding was also determined. […] No binding of the test compounds to calcium channels was observed. […] It is necessary to screen the compounds for hERG-binding during the early process of drug discovery. The unintentional binding of many drugs to hERG can cause blockade of hERG K+ channels in the heart, which can cause many side effects including cardiac arrhythmias and sudden death. […] All of the α5 imidazodiazepines were tested for hERG-binding.
(§2) The NIMH PDSP assay protocol book [https://kidbdev.med.unc.edu/databases/PDSP%20Protocols%20II%202013-03-28.pdf accessed on 23 April 2023]. describes the protocols for primary and secondary radio-ligand binding assays. These assays were carried out in a final volume of 125 µL per well in the appropriate binding buffer.
(§3) The binding of a ligand to a receptor, ion channel, or transporter was determined in the […] of 10 µM of the appropriate reference compound. […] Plates were incubated in the dark for 90 min at rt, and the reactions were stopped by vacuum filtration onto 0.3% polyethyleneimine (PEI) soaked 96-well filter mats using a 96-well Filtermateharvester. This was followed by three washes with cold PBS buffer. Radioactivity was then counted on a Microbeta counter. Nonlinear regression was used to analyze the data with N = 6 replicates.

[1] = biological target: peripheral benzodiazepine receptors (PBR) (Rattus norvegicus, UniProt P16257); test: PDSP radioligand binding at PBR
peripheral benzodiazepine receptors (PBR), sequence (P16257 whole entry): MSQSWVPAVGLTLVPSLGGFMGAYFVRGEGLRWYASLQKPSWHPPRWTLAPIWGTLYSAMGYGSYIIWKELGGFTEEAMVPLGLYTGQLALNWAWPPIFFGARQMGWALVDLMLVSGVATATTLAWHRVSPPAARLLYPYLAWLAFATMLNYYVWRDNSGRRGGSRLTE
Description: The compounds were also screened at PDSP to determine any binding with peripheral benzodiazepine receptors (PBR). A number of biological processes are associated with PBR. The most prevalent are transportation of anions for mitochondrial transmembrane potential, biosynthesis of heme, regulation of neurological damage, proliferation, cell death (apoptosis), as well as regulation of steroidogenesis. The test compounds were screened in the primary binding assay to determine the % inhibition at PBR. […] These compounds were then subjected to a secondary screening to determine the Ki (nM) value for PBR receptors.
as §2, §3

A2A = biological target: T2, A2A (Homo sapiens, UniProt P29274); test: PDSP primary binding A2A; details: primary binding, 10,000 nM; last figure of the line = mean of the 4 before it
T2 construct: purchased NIMH Psychoactive Drug Screening Program (PDSP)
T2 sequence (P29274 whole entry): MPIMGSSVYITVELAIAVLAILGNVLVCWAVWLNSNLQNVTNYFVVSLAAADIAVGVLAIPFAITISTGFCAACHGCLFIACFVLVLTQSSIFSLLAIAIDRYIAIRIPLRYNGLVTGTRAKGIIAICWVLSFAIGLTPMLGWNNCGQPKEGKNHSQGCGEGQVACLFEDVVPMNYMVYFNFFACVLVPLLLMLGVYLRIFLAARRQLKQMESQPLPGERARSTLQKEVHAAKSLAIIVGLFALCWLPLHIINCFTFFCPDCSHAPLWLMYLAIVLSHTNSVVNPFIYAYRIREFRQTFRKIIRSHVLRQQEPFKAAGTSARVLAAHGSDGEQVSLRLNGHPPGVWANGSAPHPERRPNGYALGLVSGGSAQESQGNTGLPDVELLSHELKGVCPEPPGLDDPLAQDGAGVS
Protocol: as §1, §2, §3

hERG channels = biological target: T3, hERG channels (Homo sapiens, UniProt Q12809); test: PDSP radioligand binding at hERG; details: primary binding, 10,000 nM; last figure of the line = mean of the 4 before it
T3 construct: purchased NIMH Psychoactive Drug Screening Program (PDSP)
Protocol: as §1, §2, §3

Alpha3Beta4 = biological target: T4, Alpha3Beta4 (Rattus norvegicus, UniProt P04757+P12392); test: PDSP primary binding Alpha3Beta4; details: primary binding, 10,000 nM; last figure of the line = mean of the 4 before it; read-out: Alpha3Beta4, PDSP raw data, mean
T4 construct: purchased NIMH Psychoactive Drug Screening Program (PDSP)
T4 sequence (P04757 26-499): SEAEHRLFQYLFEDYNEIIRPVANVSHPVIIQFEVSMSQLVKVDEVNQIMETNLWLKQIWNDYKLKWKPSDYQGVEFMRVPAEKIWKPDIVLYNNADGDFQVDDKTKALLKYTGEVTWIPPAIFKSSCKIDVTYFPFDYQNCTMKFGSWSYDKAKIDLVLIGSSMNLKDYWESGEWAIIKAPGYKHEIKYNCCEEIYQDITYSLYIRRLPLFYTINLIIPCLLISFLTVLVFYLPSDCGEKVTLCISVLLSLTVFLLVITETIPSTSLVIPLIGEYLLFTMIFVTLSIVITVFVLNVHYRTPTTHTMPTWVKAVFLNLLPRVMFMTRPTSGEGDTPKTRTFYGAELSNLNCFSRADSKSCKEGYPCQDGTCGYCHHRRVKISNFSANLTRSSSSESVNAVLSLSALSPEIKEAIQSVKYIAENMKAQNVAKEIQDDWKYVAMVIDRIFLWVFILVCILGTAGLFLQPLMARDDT
T4 sequence (P12392 21-495): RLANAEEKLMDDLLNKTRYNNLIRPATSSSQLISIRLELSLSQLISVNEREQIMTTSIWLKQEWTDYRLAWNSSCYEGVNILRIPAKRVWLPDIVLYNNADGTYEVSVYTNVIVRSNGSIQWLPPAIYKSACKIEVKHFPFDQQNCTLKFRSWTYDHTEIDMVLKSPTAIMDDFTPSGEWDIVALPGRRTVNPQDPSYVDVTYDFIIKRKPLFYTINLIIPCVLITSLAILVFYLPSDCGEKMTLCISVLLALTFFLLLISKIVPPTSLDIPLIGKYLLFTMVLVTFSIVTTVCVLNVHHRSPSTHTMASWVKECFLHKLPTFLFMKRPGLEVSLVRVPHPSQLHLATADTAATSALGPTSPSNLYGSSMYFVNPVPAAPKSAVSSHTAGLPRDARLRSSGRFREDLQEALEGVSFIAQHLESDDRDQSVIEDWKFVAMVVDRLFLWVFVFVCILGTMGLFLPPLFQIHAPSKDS
Protocol: as §1, §2, §3

Alpha2A = biological target: T5, Alpha2A (Homo sapiens, UniProt P08913); test: PDSP primary binding Alpha2A; details: 1.5 h; primary binding, 10,000 nM; last figure of the line = mean of the 4 before it; read-out: Alpha2A, PDSP raw data, mean
T5 construct: purchased NIMH Psychoactive Drug Screening Program (PDSP)
T5 sequence (P08913 1-465): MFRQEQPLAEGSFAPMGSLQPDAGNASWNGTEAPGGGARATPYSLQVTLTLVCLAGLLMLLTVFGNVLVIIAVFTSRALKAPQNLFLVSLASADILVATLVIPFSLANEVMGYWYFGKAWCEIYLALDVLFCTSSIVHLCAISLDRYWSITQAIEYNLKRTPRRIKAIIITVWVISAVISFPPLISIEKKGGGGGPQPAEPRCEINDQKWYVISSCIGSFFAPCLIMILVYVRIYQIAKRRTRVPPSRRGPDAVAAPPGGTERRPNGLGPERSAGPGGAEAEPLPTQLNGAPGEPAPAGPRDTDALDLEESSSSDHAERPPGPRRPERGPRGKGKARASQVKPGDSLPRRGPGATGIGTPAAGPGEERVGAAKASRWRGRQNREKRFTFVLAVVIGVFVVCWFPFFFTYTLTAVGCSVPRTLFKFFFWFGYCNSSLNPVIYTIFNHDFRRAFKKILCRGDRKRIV
Protocol: as §1, §2, §3

Sigma 2 = test: PDSP primary binding Sigma 2; details: primary binding, 10,000 nM; last figure of the line = mean of the 4 before it
Protocol: as §1, §2, §3

D2 = biological target: T6, D2 (Homo sapiens, UniProt P14416); test: PDSP primary binding D2; details: 1.5 h; primary binding, 10,000 nM; last figure of the line = mean of the 4 before it; read-out: D2, PDSP raw data, mean
T6 construct: purchased NIMH Psychoactive Drug Screening Program (PDSP)
T6 sequence (P14416 whole entry): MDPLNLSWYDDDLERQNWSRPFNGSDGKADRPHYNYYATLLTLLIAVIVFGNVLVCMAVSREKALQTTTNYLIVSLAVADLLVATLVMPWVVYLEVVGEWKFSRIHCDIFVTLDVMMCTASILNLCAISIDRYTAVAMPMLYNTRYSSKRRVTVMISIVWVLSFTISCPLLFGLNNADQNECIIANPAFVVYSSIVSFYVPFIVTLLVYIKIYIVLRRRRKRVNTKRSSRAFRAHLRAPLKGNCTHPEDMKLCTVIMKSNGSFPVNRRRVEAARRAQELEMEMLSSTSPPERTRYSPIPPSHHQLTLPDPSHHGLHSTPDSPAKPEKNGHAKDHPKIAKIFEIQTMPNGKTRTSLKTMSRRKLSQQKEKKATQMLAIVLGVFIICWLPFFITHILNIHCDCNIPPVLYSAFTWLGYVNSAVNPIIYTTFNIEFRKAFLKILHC
Protocol: as §1, §2, §3

5-HT1B = biological target: T7, 5-HT1B (Homo sapiens, UniProt P28222); test: PDSP primary binding 5-HT1B; details: 1.5 h; primary binding, 10,000 nM; last figure of the line = mean of the 4 before it; read-out: 5-HT1B, PDSP raw data, mean
T7 construct: purchased NIMH Psychoactive Drug Screening Program (PDSP)
T7 sequence (P28222 whole entry): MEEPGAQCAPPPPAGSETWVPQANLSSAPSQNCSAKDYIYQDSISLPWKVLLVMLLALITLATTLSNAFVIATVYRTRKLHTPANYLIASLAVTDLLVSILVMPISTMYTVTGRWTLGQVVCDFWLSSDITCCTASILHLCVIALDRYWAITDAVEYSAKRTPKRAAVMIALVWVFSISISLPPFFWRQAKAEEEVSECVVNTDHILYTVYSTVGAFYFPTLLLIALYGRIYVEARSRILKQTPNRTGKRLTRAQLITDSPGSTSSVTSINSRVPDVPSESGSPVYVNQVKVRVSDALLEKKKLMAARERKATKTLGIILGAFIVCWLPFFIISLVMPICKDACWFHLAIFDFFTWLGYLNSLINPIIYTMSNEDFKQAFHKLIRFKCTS
Protocol: as §1, §2, §3

5-HT7A = biological target: T8, 5-HT7A (Homo sapiens, UniProt P34969); test: PDSP primary binding 5-HT7A; details: 1.5 h; primary binding, 10,000 nM; last figure of the line = mean of the 4 before it; read-out: 5-HT7A, PDSP raw data, mean
T8 construct: purchased NIMH Psychoactive Drug Screening Program (PDSP)
Protocol: as §1, §2, §3

V1A = biological target: T9, V1A (Homo sapiens, UniProt P37288); test: PDSP primary binding V1A; details: primary binding, 10,000 nM; last figure of the line = mean of the 4 before it; read-out: V1A, PDSP raw data, mean
T9 construct: purchased NIMH Psychoactive Drug Screening Program (PDSP)
T9 sequence (P37288 whole entry): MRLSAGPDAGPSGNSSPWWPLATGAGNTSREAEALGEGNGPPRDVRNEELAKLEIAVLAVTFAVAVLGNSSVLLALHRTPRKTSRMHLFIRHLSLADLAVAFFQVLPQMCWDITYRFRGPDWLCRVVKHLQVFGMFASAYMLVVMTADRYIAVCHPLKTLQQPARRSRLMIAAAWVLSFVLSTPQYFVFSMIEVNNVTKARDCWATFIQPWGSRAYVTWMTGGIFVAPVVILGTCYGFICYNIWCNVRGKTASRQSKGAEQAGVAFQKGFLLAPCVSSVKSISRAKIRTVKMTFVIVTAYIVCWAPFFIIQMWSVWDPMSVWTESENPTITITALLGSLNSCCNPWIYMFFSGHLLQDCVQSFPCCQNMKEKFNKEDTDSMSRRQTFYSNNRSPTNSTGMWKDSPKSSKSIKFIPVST
Protocol: as §1, §2, §3

HCA2 = biological target: T10, HCA2 (Homo sapiens, UniProt Q8TDS4); test: PDSP primary binding HCA2; details: primary binding, 10,000 nM; last figure of the line = mean of the 4 before it; read-out: HCA2, PDSP raw data, mean
T10 construct: purchased NIMH Psychoactive Drug Screening Program (PDSP)
T10 sequence (Q8TDS4 whole entry): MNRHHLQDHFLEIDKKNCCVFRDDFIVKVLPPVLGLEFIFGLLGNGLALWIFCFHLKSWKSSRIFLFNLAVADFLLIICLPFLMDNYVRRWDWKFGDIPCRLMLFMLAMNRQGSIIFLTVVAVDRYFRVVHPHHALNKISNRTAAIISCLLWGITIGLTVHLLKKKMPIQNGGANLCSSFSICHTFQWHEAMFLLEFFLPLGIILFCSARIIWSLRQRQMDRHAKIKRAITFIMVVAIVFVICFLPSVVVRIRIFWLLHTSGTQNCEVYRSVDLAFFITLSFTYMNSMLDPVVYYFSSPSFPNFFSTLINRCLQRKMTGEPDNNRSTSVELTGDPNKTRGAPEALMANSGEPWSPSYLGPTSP
Protocol: as §1, §2, §3

5-HT1E = biological target: T11, 5-HT1E (Homo sapiens, UniProt P28566); test: PDSP primary binding 5-HT1E; details: primary binding, 10,000 nM; last figure of the line = mean of the 4 before it
T11 construct: purchased NIMH Psychoactive Drug Screening Program (PDSP)
T11 sequence (P28566 whole entry): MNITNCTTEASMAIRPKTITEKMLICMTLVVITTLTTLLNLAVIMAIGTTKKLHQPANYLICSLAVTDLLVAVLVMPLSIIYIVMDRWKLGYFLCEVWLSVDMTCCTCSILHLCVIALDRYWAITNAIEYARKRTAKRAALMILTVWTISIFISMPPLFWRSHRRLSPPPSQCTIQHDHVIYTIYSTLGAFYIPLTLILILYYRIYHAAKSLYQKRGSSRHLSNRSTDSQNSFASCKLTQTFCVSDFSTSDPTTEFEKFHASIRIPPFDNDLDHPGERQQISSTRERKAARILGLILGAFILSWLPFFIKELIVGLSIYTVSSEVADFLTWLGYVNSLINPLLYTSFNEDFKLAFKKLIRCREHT
Protocol: as §1, §2, §3

5-HT4 = biological target: T12, 5-HT4 (Homo sapiens, UniProt Q13639); test: PDSP primary binding 5-HT4; details: 1.5 h; primary binding, 10,000 nM; last figure of the line = mean of the 4 before it; read-out: 5-HT4, PDSP raw data, mean
T12 construct: purchased NIMH Psychoactive Drug Screening Program (PDSP)
T12 sequence (Q13639 whole entry): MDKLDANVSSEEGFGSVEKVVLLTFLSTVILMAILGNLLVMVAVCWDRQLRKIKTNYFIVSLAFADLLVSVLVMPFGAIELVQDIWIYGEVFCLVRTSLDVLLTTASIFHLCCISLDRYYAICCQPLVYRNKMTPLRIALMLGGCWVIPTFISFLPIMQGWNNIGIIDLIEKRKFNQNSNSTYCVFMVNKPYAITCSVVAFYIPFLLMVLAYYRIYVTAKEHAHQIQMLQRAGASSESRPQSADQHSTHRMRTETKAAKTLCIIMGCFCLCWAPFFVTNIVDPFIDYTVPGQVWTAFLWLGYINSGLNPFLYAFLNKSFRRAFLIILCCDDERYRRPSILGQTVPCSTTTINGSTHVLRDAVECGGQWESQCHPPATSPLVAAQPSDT
Protocol: as §1, §2, §3

[2] = 1.5 h, primary binding, 10,000 nM, last figure of the line = mean of the 4 before it, some tables list PBR twice, read-out: PBR, PDSP raw data, mean
[3] = at 10,000 nM, N = 5, read-out: Binding Affinity at PBR % Inhibition (Primary)

Row | Structure (SMILES) | inhibition at 10 µM (Alpha2Beta2) | Ki [1] | inhibition at 10 µM [1, 2] | inhibition at 10 µM [1, 3] | A2A, PDSP raw data, mean (A2A) | HERG, PDSP raw data, mean (hERG channels) | inhibition at 10 µM (Alpha3Beta4) | inhibition at 10 µM (Alpha2A) | Sigma 2, PDSP raw data, mean (Sigma 2) | inhibition at 10 µM (D2) | inhibition at 10 µM (5-HT1B) | inhibition at 10 µM (5-HT7A) | inhibition at 10 µM (V1A) | inhibition at 10 µM (HCA2) | 5-HT1E, PDSP raw data, mean (5-HT1E) | inhibition at 10 µM (5-HT4)
1 | C#Cc1ccc2c(c1)C(c1ccccc1F)=N[C@H](C)c1c(C(=S)N(C)C)ncn1-2 [Compound 33, (R)-8-Ethynyl-6-(2′-fluorophenyl)-N,N,4-trimethyl-4H-benzo[f]imidazo[1,5-a][1,4]diazepine-3-carbothioamide] | -5.95% | 1.71 µM | 22.3% | 66.4 ± 3.3% | 11.57% | -0.48% | -0.77% | 5.99% | 43.63% | 0.27% | 11.8% | 4.31% | 15.6% | -9.82% | 34.07% | -14.4%
2 | C#Cc1ccc2c(c1)C(c1ccccc1Cl)=N[C@H](C)c1c(C(=O)NC)ncn1-2 [Compound 21, (R)-6-(2′-Chlorophenyl)-8-ethynyl-N,4-dimethyl-4H-benzo[f]imidazo[1,5-a][1,4]diazepine-3-carboxamide] | 3.88% |  | 5.68% |  | -13.5% | -5.73% | 11.3% | -1.1% | 1.04% | -4.19% | -0.39% | -12.3% | 35.1% | 35.7% | 7.75% | 4%
3 | CCc1noc(-c2ncn3c2[C@@H](C)N=C(c2ccccc2F)c2cc(C4CC4)ccc2-3)n1 [Compound 46, (R)-5-(8-Cyclopropyl-6-(2′-fluorophenyl)-4-methyl-4H-benzo[f]imidazo[1,5-a][1,4]diazepin-3-yl)-3-ethyl-1,2,4-oxadiazole] | -2.72% | 0.6273 ± 0.00572 µM | 86.4% | 86.4 ± 6.35% | 27.25% | 4.34% | 10.4% | 29.2% | 89.78% | 4.73% | 15.1% | 4.98% | -6.74% | -17.2% | -18.76% | 3.05%
4 | CC(C)c1noc(-c2ncn3c2[C@@H](C)N=C(c2ccccc2F)c2cc(Cl)ccc2-3)n1 [Compound 37, (R)-5-(8-Chloro-6-(2′-fluorophenyl)-4-methyl-4H-benzo[f]imidazo[1,5-a][1,4]diazepin-3-yl)-3-isopropyl-1,2,4-oxadiazole] | 3.29% | 0.838 ± 0.135 µM | 89.6% | 88 ± 1.32% | -1.87% | 20.73% | 18.8% | 22.8% | 76.17% | 18.2% | 10.4% | 12.1% | -10.1% | 35.2% | -14.78% | 48%
5 | CCc1noc(-c2ncn3c2[C@@H](C)N=C(c2ccccc2F)c2cc(Cl)ccc2-3)n1 [Compound 36, (R)-5-(8-Chloro-6-(2′-fluorophenyl)-4-methyl-4H-benzo[f]imidazo[1,5-a][1,4]diazepin-3-yl)-3-ethyl-1,2,4-oxadiazole] | -6.7% | 0.982 ± 0.405 µM | 57.2% | 57.2 ± 10.3% | 1.43% | -1.15% | 15.6% | -14.4% | 81.41% | 3.17% | 3.67% | 1.53% | 27.6% | -29.3% | 5.28% | -12.3%
6 | C[C@H]1N=C(c2ccccc2F)c2cc(-c3ccccc3)ccc2-n2cnc(C(=O)N(C)C)c21 [Compound 5, (R)-6-(2′-Fluorophenyl)-N,N,4-trimethyl-8-phenyl-4H-benzo[f]imidazo[1,5-a][1,4]diazepine-3-carboxamide] | -5.95% |  | 22.3% |  | 11.57% | -0.48% | -0.77% | 5.99% | 43.63% | 0.27% | 11.8% | 4.31% | 15.6% | -9.82% | 34.07% | -14.4%
7 | C#Cc1ccc2c(c1)C(c1ccccn1)=N[C@@H](C)c1c(C(=O)N(C)C)ncn1-2 [Compound 31, (S)-8-Ethynyl-N,N,4-trimethyl-6-(pyridin-2′-yl)-4H-benzo[f]imidazo[1,5-a][1,4]diazepine-3-carboxamide] | -2.25% |  | 4.44% |  | -10.83% | 0.95% | -0.5% | -7.15% | -12.63% | 3.47% | -0.27% | -9.64% | 3.6% | 20.8% | 18.14% | -0.81%
